{
  "source": "BindingDB's records for patent US10071110",
  "about": "(University of California, 2018)",
  "target": "T1, Capsid scaffolding protein (Human cytomegalovirus (strain AD169), UniProt P16753)",
  "T1 sequence (P16753 whole entry)": "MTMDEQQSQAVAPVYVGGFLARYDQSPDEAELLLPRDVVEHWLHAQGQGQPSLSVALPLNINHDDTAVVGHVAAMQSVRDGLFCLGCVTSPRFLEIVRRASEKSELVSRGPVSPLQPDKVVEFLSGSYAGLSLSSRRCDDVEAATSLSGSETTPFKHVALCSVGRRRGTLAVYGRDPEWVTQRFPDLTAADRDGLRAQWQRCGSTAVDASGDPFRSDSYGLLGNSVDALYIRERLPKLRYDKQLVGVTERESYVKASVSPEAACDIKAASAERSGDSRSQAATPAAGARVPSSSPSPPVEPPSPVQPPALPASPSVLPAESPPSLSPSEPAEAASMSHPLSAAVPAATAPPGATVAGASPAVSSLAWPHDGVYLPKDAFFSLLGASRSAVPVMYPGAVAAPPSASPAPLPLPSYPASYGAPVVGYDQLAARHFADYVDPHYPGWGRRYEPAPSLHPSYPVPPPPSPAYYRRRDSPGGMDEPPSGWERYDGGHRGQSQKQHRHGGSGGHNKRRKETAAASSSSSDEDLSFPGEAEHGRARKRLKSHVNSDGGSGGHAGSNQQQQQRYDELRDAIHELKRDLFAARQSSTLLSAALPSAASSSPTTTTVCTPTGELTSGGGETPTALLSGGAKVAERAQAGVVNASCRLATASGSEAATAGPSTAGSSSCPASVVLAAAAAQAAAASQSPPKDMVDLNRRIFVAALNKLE",
  "assay": "HCMV antiviral assay",
  "procedure": "Methods 21:293-298, 1990. […] After absorption of the lysate, the Hybriwix filters were hybridized overnight at 60° C.",
  "data": [
    {"compound": "Nc1ncnc2c1ncn2CCOCP(=O)(O)O", "note": "[US10071110, Compound Adefovir]", "values": [
      {"measurement": "EC50", "value": 55, "unit": "µM"}
    ]}
  ]
}
